Assay results reported in US10183038B2, “Method for preventing and treating renal disease” (L & F Research LLC, priority 2010, dated 2019).

Assays:
[1] = tested on: patients at high risk for recurrent FSGS after transplantation; test: Clinical outcome after kidney transplantation in patients at high risk for recurrent FSGS, rituximab vs historical controls; format: in vivo, human
CD19+ cells = test: CD19 count in transplanted FSGS patients after rituximab; format: in vivo, human; conditions: N = 27
From the text: W=white, B=black, M=male, F=female, ESRD=end stage renal disease, LD=living donor, DD=deceased donor. ΔeGFR: variation of eGFR. *p<0.05.

SMPDL-3b [2] = test: SMPDL-3b expression in podocytes cultured with FSGS patient sera; format: cell-based, human; conditions: recurrent FSGS (FIG. 2)
Protocol: FIG. 2A: Depicts low- and high-power images of immunoperoxidase staining for SMPDL-3b and synaptopodin in post-reperfusion biopsies of patients with recurrent (REC) and non-recurrent (NON-REC) FSGS. Arrows point to podocytes. Scale bars: 25 μm top and 15 μm bottom. […] All kidney biopsies were obtained prior to initiation of treatment with rituximab. An average of 13±4 glomeruli per patient were analyzed. *p<0.05, unpaired Student's t test. Data are mean±s.d. […] Data are mean±s.d. *p<0.05 and **p<0.01 by one-way ANOVA. […] Data are mean±s.d. *p<0.05 and **p<0.01 by one-way ANOVA. […] Data are mean±s.d. *p<0.05 and **p<0.01 by one-way ANOVA. […] Data are mean±s.d. *p<0.05 and **p<0.01 by one-way ANOVA.
(A) Low- and high-power images of immunoperoxidase staining for SMPDL-3b and synaptopodin in post-reperfusion biopsies of patients with recurrent (REC) and non-recurrent (NON-REC) FSGS. Arrows point to podocytes. […] All kidney biopsies were obtained prior to initiation of treatment with rituximab. […] (G) ASMase activity per μg of total lysate protein, as evaluated by ELISA.

SMPDL-3B [3] = target: T1, SMPDL-3B (Homo sapiens, UniProt Q92485); conditions: cited from earlier work
T1 sequence (Q92485 19-455): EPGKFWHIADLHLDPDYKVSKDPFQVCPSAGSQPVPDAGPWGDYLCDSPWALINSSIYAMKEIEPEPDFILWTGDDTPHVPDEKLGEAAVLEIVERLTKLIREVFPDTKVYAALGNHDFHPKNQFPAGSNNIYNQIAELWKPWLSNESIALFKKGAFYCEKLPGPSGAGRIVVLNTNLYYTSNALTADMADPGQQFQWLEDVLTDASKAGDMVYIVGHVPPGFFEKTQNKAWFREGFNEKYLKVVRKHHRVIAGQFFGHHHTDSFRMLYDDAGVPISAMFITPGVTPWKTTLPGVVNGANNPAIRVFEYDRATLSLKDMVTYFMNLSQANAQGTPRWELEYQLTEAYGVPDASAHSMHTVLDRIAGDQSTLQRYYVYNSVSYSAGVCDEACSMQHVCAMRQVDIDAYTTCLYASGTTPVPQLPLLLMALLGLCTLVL

[4] = tested on: human podocytes exposed to DM w DN sera; test: Human podocytes exposed to sera of diabetic patients with DN (blebbing, cholesterol, apoptosis); format: cell-based; conditions: normal human podocytes exposed to sera of patients with diabetic nephropathy; cholesterol depletion with Methyl-beta-cyclodextrin
Protocol: DN is a chronic progressive disease that affects a sizable subset of patients with diabetes. Despite the identification of multiple risk factors that contribute to the development of DN, it has remained difficult to identify the subset of patients with diabetes at risk for DN. This led to testing to determine if an in vitro prediction assay could be developed. For this purpose, the following experiments were conducted. Non-identifiable samples of patient sera were obtained. Samples consisted of serum collected from 10 patients with diabetes and macroalbuminuria (DM w DN) and 10 diabetic normoalbuminuric patients (DM w/o DN) well matched for HgA1C (7.9%), total cholesterol levels and the duration of diabetes. Normal human sera (NHS) from 10 age and sex matched healthy subjects were also utilized as controls. Differentiated human podocytes were serum starved for 24 hours and then exposed to 4% serum of NHS, DM w/o DN, DM w DN for 24 hours. […] Total cholesterol was also determined with an enzymatic reaction. Total cholesterol was increased in podocytes treated with DM w DN when compared to DM w/o DN and NHS (FIG. 3D, *p<0.05), a phenomenon that was prevented by CD (FIG. 3D, #p<0.05). Cell blebbing was predictive of DN, as sera collected from patients before progressing to DN at the time they were normoalbuminuric already caused cell blebbing (FIG. 3E).

LPS induced proteinuria = LPS induced proteinuria in mice; format: in vivo; conditions: 4000 mg/kg intravenously 1 hour prior to LPS, urines 30 hours after first LPS injection, p<0.05 LPS+CD versus LPS
Protocol: FIG. 6A-FIG. 6B: Depicts that CD partially prevents LPS induced podocyte damage. FIG. 6A: Depicts the results when HPBCD was administered intravenously (4000 mg/kg) 1 hour prior to LPS injection (200 ug/20 g mouse intraperitoneally). Urines were collected […] after LPS injection and analyzed for albumin/creatinine ratio by ELISA. p<0.05 when comparing LPS+CD versus LPS. FIG. 6B: Depicts that CD prevented LPS induction of MyD88 in isolated glomeruli in vivo. Referring to FIG. 6A, the antiproteinuric effects of CD were tested in an established experimental model of LPS induced proteinuria. Three mice per group were utilized. Mice were left untreated (CTRL), or received one injection of 4000 mg/kg Hydroxypropyl-beta-cyclodextrin (CD), or two injections of 200 μg LPS 24 hours apart (LPS), or received 4000 mg/kg of CD 1 hour prior to LPS treatment (LPS+CD). Urines were collected at 30 hours after the first LPS injection and analyzed for albumin and creatinine content by ELISA. Albuminuria was determined as the ratio between albumin and creatinine (μg/mg).

[5] = number of patients (%), N = 27, one dose of rituximab (375 mg/m^2) within 24 hours of transplant

For rituximab, the Graft survival ([1]; 6 months, N = 27) was 100%, the Graft survival ([1]; 12 months, N = 27) was 95.8% and the “difference in graft survival between groups” value ([1]; at 6 and 12 months, rituximab group vs control group) was “no significant difference”. The “incidence of recurrent nephrotic range proteinuria and need for plasmapheresis” value ([1]; between day 3 and 30 after transplantation, rituximab group vs control group) was “significantly lower”, the “Nephrotic proteinuria w/i 1 Mo” value [1, 5] was 7 (26%) and the “Plasmapheresis w/I 1 Mo” value [1, 5] was 8 (30%). The “CD 19 count” value (CD19+ cells; Week 0) was 360 ± 223, the “CD 19 count” value (CD19+ cells; Week 0.5) was 107 ± 115 and the “CD 19 count” value (CD19+ cells; Week 1) was 45 ± 31. For the same compound, the “CD 19 count” value (CD19+ cells; Week 2) was 16 ± 23, the “CD 19 count” value (CD19+ cells; Week 3) was 5 ± 6 and the “CD 19 count” value (CD19+ cells; Week 4) was 6 ± 7. For the same compound, the “downregulation of SMPDL-3b” value (SMPDL-3b [2]) was “prevents the downregulation of SMPDL-3b” and the “binding to SMPDL-3B” value (SMPDL-3B [3]) was “found to bind SMPDL-3B”.
For Methyl-beta-cyclodextrin, the cell blebbing [4] was “prevents”.
With `CC(O)COC[C@H]1O[C@@H]2O[C@H]3[C@H](O)[C@@H](O)[C@@H](O[C@H]4[C@H](O)[C@@H](O)[C@@H](O[C@H]5[C@H](O)[C@@H](O)[C@@H](O[C@H]6[C@H](O)[C@@H](O)[C@@H](O[C@H]7[C@H](O)[C@@H](O)[C@@H](O[C@H]8[C@H](O)[C@@H](O)[C@@H](O[C@H]1[C@H](O)[C@H]2O)O[C@@H]8COCC(C)O)O[C@@H]7COCC(C)O)O[C@@H]6COCC(C)O)O[C@@H]5COCC(C)O)O[C@@H]4COCC(C)O)O[C@@H]3COCC(C)O` (stereo partly drawn) [Hydroxypropyl-beta-cyclodextrin] the “LPS induced proteinuria (albumin/creatinine ratio by ELISA)” value (LPS induced proteinuria) was “protects from Lipopolysaccharide (LPS) induced proteinuria”.
